From ChEMBL document CHEMBL5055668 (J Med Chem, 2021) come the findings set out here.

The target in data set [1] is T1, Macrophage colony-stimulating factor 1 receptor (Mus musculus) (UniProt P09581).
T1 sequence (whole entry): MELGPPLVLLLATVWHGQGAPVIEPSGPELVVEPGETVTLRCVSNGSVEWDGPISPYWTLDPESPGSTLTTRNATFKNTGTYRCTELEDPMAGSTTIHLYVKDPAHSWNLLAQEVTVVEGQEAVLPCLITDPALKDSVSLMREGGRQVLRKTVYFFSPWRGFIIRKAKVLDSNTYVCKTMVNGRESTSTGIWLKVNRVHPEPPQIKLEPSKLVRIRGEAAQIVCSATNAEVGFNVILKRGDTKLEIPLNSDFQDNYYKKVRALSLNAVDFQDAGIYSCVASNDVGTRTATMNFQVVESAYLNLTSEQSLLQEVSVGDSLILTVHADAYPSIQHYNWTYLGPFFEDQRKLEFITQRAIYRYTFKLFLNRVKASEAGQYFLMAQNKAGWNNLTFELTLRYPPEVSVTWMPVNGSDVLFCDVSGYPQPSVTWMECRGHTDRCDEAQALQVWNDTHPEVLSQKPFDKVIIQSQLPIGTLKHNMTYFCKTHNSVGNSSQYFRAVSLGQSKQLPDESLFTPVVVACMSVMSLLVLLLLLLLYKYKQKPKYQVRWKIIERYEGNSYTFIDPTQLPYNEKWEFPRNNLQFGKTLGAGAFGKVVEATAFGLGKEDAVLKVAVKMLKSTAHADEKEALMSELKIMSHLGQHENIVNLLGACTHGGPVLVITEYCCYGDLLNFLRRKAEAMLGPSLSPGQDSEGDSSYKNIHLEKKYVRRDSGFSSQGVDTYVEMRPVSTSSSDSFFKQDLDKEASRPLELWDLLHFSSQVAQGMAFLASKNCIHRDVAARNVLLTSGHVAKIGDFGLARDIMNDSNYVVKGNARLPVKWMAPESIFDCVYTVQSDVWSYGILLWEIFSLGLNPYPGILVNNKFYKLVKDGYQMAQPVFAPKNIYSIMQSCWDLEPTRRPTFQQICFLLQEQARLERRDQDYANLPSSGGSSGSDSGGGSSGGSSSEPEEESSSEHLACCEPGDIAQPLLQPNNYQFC
Nature of the data set: Inhibition of CSF-1R signaling pathway in C57BL/6 mouse BMDM cells assessed as reduction in M-CSF induced AKT phosphorylation preincubated for 12 hrs followed by M-CSF stimulation for 30 mins by Western blot analysis. The format is cell-based. On the technique in general: Immunoblotting shows a protein as a band on a membrane.

The test system of data set [2] is MC-38. The experiment in a line: Antiproliferative activity against mouse MC38 cells assessed as reduction in cell viability at 10 to 100 nM incubated for 24 hrs by CCK-8 assay. The class given is functional, cell-based. To be noted: dose 10-100 nM. Background: Tetrazolium dyes change colour on reduction, which living cells bring about.
For data set [3], the target named is T1, Macrophage colony-stimulating factor 1 receptor (Mus musculus). Nature of the data set: Binding affinity to CSF-1R in C57BL/6 mouse BMDM cells assessed as increase in melting temperature at 100 nM after 1 hr by CETSA. The format is cell-based.
The subject of data set [4] is BMDM. The experiment in a line: Induction of conversion of M2-macrophages to the M1 phenotype in CM of MC38 cells treated C57BL/6 mouse BMDM cells assessed as upregulation of […] mRNA expression at 30 to 100 nM preincubated with culture medium of MC38 cells for 24 hrs followed by compound addition and measured after 24 hrs by qPCR analysis. The class given is functional, cell-based. The settings on record: dose 30-100 nM.

Data set [5] deals with BMDM. Nature of the data set: Induction of conversion of M2-macrophages to the M1 phenotype in CM of MC38 cells treated C57BL/6 mouse BMDM cells assessed as upregulation of Il12 mRNA expression at 30 to 100 nM preincubated with culture medium of MC38 cells for 24 hrs followed by compound addition and measured after 24 hrs by qPCR analysis. The format is functional, cell-based. To be noted: dose 30-100 nM.

The target in data set [6] is T1, Macrophage colony-stimulating factor 1 receptor (Mus musculus). Nature of the data set: Binding affinity to CSF-1R in C57BL/6 mouse BMDM cells at 100 nM after 1 hr by SIP assay. The class given is cell-based.
The subject of data set [7] is HCT-116. The experiment in a line: Antiproliferative activity against human HCT-116 cells assessed as reduction in cell viability at 10 to 100 nM incubated for 24 hrs by CCK-8 assay. The settings on record: dose 10-100 nM. The class given is functional, cell-based.
The test system of data set [8] is HCT-116. Nature of the data set: Antitumor activity against human HCT-116 cells xenografted in nude BALB/c mouse assessed as tumor growth inhibition at 5 to 20 mg/kg, po administered daily for 2 weeks. The settings on record: dose 5-20 mg/kg. The format is functional, organism-based.
Data set [9] deals with T1, Macrophage colony-stimulating factor 1 receptor (Mus musculus). The experiment in a line: Inhibition of CSF-1R signaling pathway in C57BL/6 mouse BMDM cells assessed as reduction in M-CSF induced CSF-1R phosphorylation preincubated for 12 hrs followed by M-CSF stimulation for 30 mins by Western blot analysis. The format is cell-based. To be noted: dose 100.0 nM.
The subject of a further data set is THP-1. Nature of the data set: Induction of conversion of M2-macrophages to the M1 phenotype in CM of HCT116 cells treated […]-differentiated human THP-1 cells assessed as upregulation of Tnf mRNA expression at 30 to 100 nM incubated for 24 hrs by qPCR analysis. The class given is functional, cell-based. To be noted: dose 30-100 nM. (In general: In qPCR the cycle at which signal appears reflects the starting amount.)

Data set [10] has as its system MC-38. The experiment in a line: Antitumor activity against mouse MC38 cells allografted in C57BL6 mouse assessed as increase in Il12 mRNA expression at 10 to 20 mg/kg, po administered daily for 2 weeks by qPCR analysis. The settings on record: dose 10-20 mg/kg. The class given is functional, organism-based.
The subject of data set [11] is MC-38. The experiment in a line: Antitumor activity against mouse MC38 cells allografted in po dosed C57BL6 mouse assessed as inhibition of tumor growth administered daily for 2 weeks by caliper method. The class given is functional, organism-based. The settings on record: dose 5-20 mg/kg.
Data set [12] deals with BMDM. The experiment in a line: Induction of conversion of M2-macrophages to the M1 phenotype in CM of MC38 cells treated C57BL/6 mouse BMDM cells assessed as down regulation of Retnla mRNA expression at 30 to 100 nM preincubated with culture medium of MC38 cells for 24 hrs followed by compound addition and measured after 24 hrs by qPCR analysis. The class given is functional, cell-based. To be noted: dose 30-100 nM.

A further data set has as its system Mus musculus. Nature of the data set: Toxicity in C57BL/6 mouse allografted with mouse MC38 cells assessed as spleen damage at 5 to 20 mg/kg, po administered every day for 2 weeks by histopathological analysis. The format is organism-based, MC-38. To be noted: in vivo, 336 h, dose 5-20 mg/kg.

Calls of active or inactive are those of the source. The calls are words filed in the database; no cut-off is given here.

Take `Cc1[nH]c(/C=C2\C(=O)Nc3cc(NC(=O)Nc4cc(C(C)(C)C)on4)ccc32)c(C)c1NC(=O)CN1CCN(C)CC1`: the inhibition result in [1] and in data set [9] was “Dose-dependent effect” each time. Also, the result in the data set on MC-38 [2], with HCT-116 [7] and in the data set on HCT-116 [8] was inactive. Also, the Tm in data set [3] is 68 °C. The outcome (in the data set with BMDM [4]; in the data set on BMDM [5]; in data set [6]; in the data set with THP-1; with MC-38 [10]; in the data set on BMDM [12]) was Active. The values for the Activity entry in the data set with MC-38 [11] and in the data set on Mus musculus were “Dose-dependent effect” and “Non-Toxic”, respectively.
